Source: patent US12527801B2, “Cell activator of animal cell” (Vitamin C60 BioResearch Corporation, priority 2019, dated 2026)

Columns and labels:
[1] = In vitro skin sensitization test (DPRA method) (OECD TG442C); assay type: biochemical
[2] = test system: Normal human epidermal keratinocytes; experiment: Microarray test of gene expression (DNA Chip Genopal); assay type: cell-based; details: for ATP5F1 (internal standard) gene expression, Average / CDH1 (E-cadherin) gene expression, Average / CLDN1 (claudin 1) gene expression, Average / DSC1 (desmocollin 1) gene expression, Average / DSG1 (desmoglein 1) gene expression, Average / EDN1 (endothelin 1) gene expression, Average / FN1 (fibronectin) gene expression, Average / GUSB (internal standard) gene expression, Average / HAS3 (hyaluronan synthase) gene expression, Average / IVL (involucrin) gene expression, Average / KLK5 (kallikrein 5) gene expression, Average / KLK7 (kallikrein 7) gene expression, Average / KRT1 (keratin 1) gene expression, Average / KRT10 (keratin 10) gene expression, Average / PPIA (Cyclophilin) (internal standard) gene expression, Average / PTGES (prostaglandin E synthetase) gene expression, Average / PTGS2 (COX-2) (cyclooxygenase 2) gene expression, Average / RPLPO (internal standard) gene expression, Average / SPINK5 (LEKTI1) (serine protease inhibitor) gene expression, Average / SPRR1B (cornified envelope constituent protein) gene expression, Average / TGM1 (transglutaminase 1) gene expression, Average: 24 h, ratio, control as 1
Method: Normal human epidermal keratinocytes were seeded on 6-well plates at the cell density of 1.5×10^5 cells/well using a HuMedia-KG2 medium. After culturing for 24 hours, the medium was replaced with 3 mL of a HuMedia-KB2 medium comprising AOH at the concentration of 0, 30, 100, and 300 μg/mL. After the replacement, culturing was performed for 24 hours, and the cells were immersed in a QIAzol reagent and lysed. RNA purified using an miRNeasy Mini Kit (QIAGEN) was recovered from the lysate, and a DNA microarray was performed using an mRNA expression analysis chip (DNA Chip Genopal (registered trademark)). The obtained results were analyzed to represent the expression of various genes as a ratio with a correction value of the control as 1, and a significant difference test was performed using the Student's t-test (significance level p of 5%).
In Table 2, it can be determined that when the value is larger than 1, gene expression is increased, and when the p value is smaller than 0.05, there is a significant change with respect to the control (indicated by * in the table). AOH treatment varied the expression of some genes in a concentration-dependent manner.

[3] = AOH treatment, concentration not given

SMILES: O=c1[nH]c2nn[nH]c(=O)c2[nH]1 [AOH, 3H-imidazo[4,5-d][1,2,3]triazine-4,6(5H,7H)-dione]
- toxicity in in vitro skin sensitization test (DPRA method) [1]: toxicity was not recognized
- ATP5F1 (internal standard) gene expression, Average ([2]; 30 μg/mL): 1.00
- CDH1 (E-cadherin) gene expression, Average ([2]; 30 μg/mL): 1.11
- CLDN1 (claudin 1) gene expression, Average ([2]; 30 μg/mL): 1.19
- DSC1 (desmocollin 1) gene expression, Average ([2]; 30 μg/mL): 1.26
- DSG1 (desmoglein 1) gene expression, Average ([2]; 30 μg/mL): 1.09
- EDN1 (endothelin 1) gene expression, Average ([2]; 30 μg/mL): 1.24
- FN1 (fibronectin) gene expression, Average ([2]; 30 μg/mL): 1.12
- GUSB (internal standard) gene expression, Average ([2]; 30 μg/mL): 0.97
- HAS3 (hyaluronan synthase) gene expression, Average ([2]; 30 μg/mL): 1.09
- IVL (involucrin) gene expression, Average ([2]; 30 μg/mL): 1.35
- KLK5 (kallikrein 5) gene expression, Average ([2]; 30 μg/mL): 1.11
- KLK7 (kallikrein 7) gene expression, Average ([2]; 30 μg/mL): 1.12
- KRT1 (keratin 1) gene expression, Average ([2]; 30 μg/mL): 1.46
- KRT10 (keratin 10) gene expression, Average ([2]; 30 μg/mL): 1.19
- PPIA (Cyclophilin) (internal standard) gene expression, Average ([2]; 30 μg/mL): 0.98
- PTGES (prostaglandin E synthetase) gene expression, Average ([2]; 30 μg/mL): 0.77
- PTGS2 (COX-2) (cyclooxygenase 2) gene expression, Average ([2]; 30 μg/mL): 0.90
- RPLPO (internal standard) gene expression, Average ([2]; 30 μg/mL): 1.03
- SPINK5 (LEKTI1) (serine protease inhibitor) gene expression, Average ([2]; 30 μg/mL): 1.15
- SPRR1B (cornified envelope constituent protein) gene expression, Average ([2]; 30 μg/mL): 1.27
- TGM1 (transglutaminase 1) gene expression, Average ([2]; 30 μg/mL): 1.16
- ATP5F1 (internal standard) gene expression, Average ([2]; 100 μg/mL): 1.02
- CDH1 (E-cadherin) gene expression, Average ([2]; 100 μg/mL): 1.09
- CLDN1 (claudin 1) gene expression, Average ([2]; 100 μg/mL): 1.49
- DSC1 (desmocollin 1) gene expression, Average ([2]; 100 μg/mL): 1.28
- DSG1 (desmoglein 1) gene expression, Average ([2]; 100 μg/mL): 1.13
- EDN1 (endothelin 1) gene expression, Average ([2]; 100 μg/mL): 1.39
- FN1 (fibronectin) gene expression, Average ([2]; 100 μg/mL): 1.15
- GUSB (internal standard) gene expression, Average ([2]; 100 μg/mL): 1.00
- HAS3 (hyaluronan synthase) gene expression, Average ([2]; 100 μg/mL): 1.27
- IVL (involucrin) gene expression, Average ([2]; 100 μg/mL): 1.49
- KLK5 (kallikrein 5) gene expression, Average ([2]; 100 μg/mL): 1.16
- KLK7 (kallikrein 7) gene expression, Average ([2]; 100 μg/mL): 1.24
- KRT1 (keratin 1) gene expression, Average ([2]; 100 μg/mL): 1.60
- KRT10 (keratin 10) gene expression, Average ([2]; 100 μg/mL): 1.33
- PPIA (Cyclophilin) (internal standard) gene expression, Average ([2]; 100 μg/mL): 0.96
- PTGES (prostaglandin E synthetase) gene expression, Average ([2]; 100 μg/mL): 0.79
- PTGS2 (COX-2) (cyclooxygenase 2) gene expression, Average ([2]; 100 μg/mL): 0.93
- RPLPO (internal standard) gene expression, Average ([2]; 100 μg/mL): 1.06
- SPINK5 (LEKTI1) (serine protease inhibitor) gene expression, Average ([2]; 100 μg/mL): 1.28
- SPRR1B (cornified envelope constituent protein) gene expression, Average ([2]; 100 μg/mL): 1.42
- TGM1 (transglutaminase 1) gene expression, Average ([2]; 100 μg/mL): 1.29
- ATP5F1 (internal standard) gene expression, Average ([2]; 300 μg/mL): 1.01
- CDH1 (E-cadherin) gene expression, Average ([2]; 300 μg/mL): 1.16
- CLDN1 (claudin 1) gene expression, Average ([2]; 300 μg/mL): 1.43
- DSC1 (desmocollin 1) gene expression, Average ([2]; 300 μg/mL): 1.59
- DSG1 (desmoglein 1) gene expression, Average ([2]; 300 μg/mL): 1.15
- EDN1 (endothelin 1) gene expression, Average ([2]; 300 μg/mL): 1.75
- FN1 (fibronectin) gene expression, Average ([2]; 300 μg/mL): 1.22
- GUSB (internal standard) gene expression, Average ([2]; 300 μg/mL): 0.97
- HAS3 (hyaluronan synthase) gene expression, Average ([2]; 300 μg/mL): 1.60
- IVL (involucrin) gene expression, Average ([2]; 300 μg/mL): 1.75
- KLK5 (kallikrein 5) gene expression, Average ([2]; 300 μg/mL): 1.24
- KLK7 (kallikrein 7) gene expression, Average ([2]; 300 μg/mL): 1.17
- KRT1 (keratin 1) gene expression, Average ([2]; 300 μg/mL): 2.07
- KRT10 (keratin 10) gene expression, Average ([2]; 300 μg/mL): 1.44
- PPIA (Cyclophilin) (internal standard) gene expression, Average ([2]; 300 μg/mL): 0.99
- PTGES (prostaglandin E synthetase) gene expression, Average ([2]; 300 μg/mL): 0.56
- PTGS2 (COX-2) (cyclooxygenase 2) gene expression, Average ([2]; 300 μg/mL): 0.79
- RPLPO (internal standard) gene expression, Average ([2]; 300 μg/mL): 1.08
- SPINK5 (LEKTI1) (serine protease inhibitor) gene expression, Average ([2]; 300 μg/mL): 1.38
- SPRR1B (cornified envelope constituent protein) gene expression, Average ([2]; 300 μg/mL): 1.60
- TGM1 (transglutaminase 1) gene expression, Average ([2]; 300 μg/mL): 1.57
- gene expression of E-cadherin (CDH1), change in words [2, 3]: significant increase
- gene expression of SPRR1B, change in words [2, 3]: significant increase
- gene expression of claudin 1 (CLDN1), change in words [2, 3]: significant increase
- gene expression of cyclooxygenase (PTGS2), change in words [2, 3]: significant decrease
- gene expression of desmocollin 1 (DSC1), change in words [2, 3]: significant increase
- gene expression of desmoglein 1 (DSG1), change in words [2, 3]: significant increase
- gene expression of endothelin 1 (EDN1), change in words [2, 3]: significant increase
- gene expression of fibronectin (FN1), change in words [2, 3]: slight increase
- gene expression of hyaluronan synthase (HAS3), change in words [2, 3]: significant increase
- gene expression of involucrin (IVL), change in words [2, 3]: significant increase
- gene expression of kallikrein 5 (KLK5), change in words [2, 3]: significant increase
- gene expression of kallikrein 7 (KLK7), change in words [2, 3]: significant increase
- gene expression of keratin 1 (KRT1), change in words [2, 3]: significant increase
- gene expression of keratin 10 (KRT10), change in words [2, 3]: significant increase
- gene expression of prostaglandin E synthetase (PTGES), change in words [2, 3]: significant decrease
- gene expression of serine protease inhibitor (SPIMK5), change in words [2, 3]: significant increase
- gene expression of transglutaminase 1 (TGM1), change in words [2, 3]: significant increase
